Reference: patent publication US12435066B2, “Substituted tricyclic compounds” (LUPIN LIMITED, priority 2019, dated 2025)
pIC50: −log10 of the molar value.

Key:
[1] = biological target: T1, hSOS1 mediated nucleotide exchange on hKRASG12C (Homo sapiens, UniProt Q07889); assay: biochemical
T1 sequence (Q07889 564-1049): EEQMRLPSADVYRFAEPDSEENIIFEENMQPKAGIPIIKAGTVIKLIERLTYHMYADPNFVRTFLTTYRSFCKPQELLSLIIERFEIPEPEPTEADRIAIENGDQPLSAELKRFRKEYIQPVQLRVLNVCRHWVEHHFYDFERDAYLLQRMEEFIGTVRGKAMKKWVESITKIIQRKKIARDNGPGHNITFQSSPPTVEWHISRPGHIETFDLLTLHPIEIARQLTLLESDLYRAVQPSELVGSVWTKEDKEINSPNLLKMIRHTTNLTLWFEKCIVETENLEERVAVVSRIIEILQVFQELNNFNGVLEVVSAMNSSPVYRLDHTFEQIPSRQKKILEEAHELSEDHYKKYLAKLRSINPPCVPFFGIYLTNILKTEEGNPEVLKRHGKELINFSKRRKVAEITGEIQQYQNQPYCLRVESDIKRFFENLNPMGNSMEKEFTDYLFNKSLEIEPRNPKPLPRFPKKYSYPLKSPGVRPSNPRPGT
Experimental: Example-127: Guanine Nucleotide Exchange Assay (GNEA)
GNEA assay was conducted to evaluate the effects of compounds on the nucleotide exchange on hKRASG12C mediated by hSOS1. Inhibitory effect of compounds on HIS-hSOS1, 564-1049aa mediated GTP loading onto GST-hKRASG12C, 1-169aa both expressed and purified in-house was assessed using HTRF detection technology in biochemical assay. Compounds were pre-incubated with hSOS1 working solution containing 10-50 nM hSOS1 and 200 nM EDA-GTP-DY-647P1 (Custom manufactured, Jena Biosciences) per well of a 384 well plate (Perkin Elmer, Cat #6007290) for 10 min at 20° C. in the assay buffer containing 10 mM HEPES, pH 7.4, 150 mM NaCl, 5 mM MgCl2, 1 mM DTT, 0.05% BSA fraction V and 0.0025% Igepal. Reaction was initiated by adding working solution of hKRASG12C containing 25-125 nM hKRASG12C and MAb Anti-GST-Tb (#61GSTTLA, Cisbio BioAssays) in assay buffer. Total assay volume was 15 μL. Reaction was continued for 30-60 min at 20° C. HTRF signal was recorded in PHERAStar microplate reader. Ratio of signal obtained at 665 nm and 620 nm was used to compute the percent inhibition of compound as follows.
Where, Positive control=hSOS1+EDA-GTP-DY-647P1+hKRASG12C+MAb Anti-GST-Tb Negative control=EDA-GTP-DY-647P1+hKRASG12C+MAb Anti-GST-Tb

pERK in DLD1 cells = assay: ERK phosphorylation assay after EGF stimulation; format: cell-based; conditions: Homo sapiens, DLD-1, compound 2 h, 200 ng/ml hEGF 5 minutes, alphascreen pERK, read-out: ERK phosphorylation inhibition IC50
Experimental: Example-128: ERK Phosphorylation Assay Protocol
Compounds were tested for their ability to inhibit pERK after EGF stimulation in DLD1 cells. Cells were seeded at 0.2 million cells per well in 96 well cell binding tissue culture plate in 100 μL complete media and were allowed to settle overnight (16 to 20 h). On the following day, cells were treated with various concentrations of test compounds for 2 h followed by stimulation with 200 ng/ml hEGF (diluted in PBS) for 5 minutes. Cells were then washed once with PBS and lysed in freshly prepared lysis buffer (provided with alphascreen surefire ERK1/2 p-T202/Y204 assay kit, cat no: TGRESB10K, Perkin Elmer). Lysis was carried out in plate shaker for 10-15 mins. Lysate was transferred to […] white opti-plate (Perkin Elmer) and alphascreen for pERK was carried out as per manufacturer's instructions. Plate was read after 2 h incubation in plate shaker at […] 300 RPM, 25-28° C.

hSOS1 and hKRASG12C = biological target: T2, hSOS1 and hKRASG12C (Homo sapiens, UniProt Q07889); assay: biochemical
T2 sequence (Q07889 564-1049): T1 sequence (Q07889 564-1049)
Experimental: Interaction assay was conducted to evaluate the ability of the compounds to disrupt the protein-protein interactions between hSOS1 and hKRASG12C. Inhibitory effect of compounds on GST-hSOS1, 564-1049aa expressed and purified in-house and HIS-hKRASG12C (R06-32DH, SignalChem) interaction was assessed using HTRF detection technology in biochemical assay. Compounds were pre-incubated with 10-50 nM working solution of hSOS1 per well of a 384 well plate (Perkin Elmer, Cat #6007290) for 10 min at 20° C. in the assay buffer containing 5 mM HEPES, pH 7.4, 150 mM NaCl, 10 mM EDTA, 1 mM DTT, 0.05% BSA fraction V and 0.0025% Igepal. Reaction was initiated by adding 100-300 nM working solution of hKRASG12C in assay buffer. Total assay volume was 15 μL. Reaction was continued for 30-60 min at 20° C. Then detection solution containing MAb Anti-GST-d2 (#61GSTDLA, Cisbio BioAssays) and MAb Anti-HIS-Tb (#61HISTLA, Cisbio BioAssays), all prepared in HTRF detection buffer (#61DB10RDF, Cisbio BioAssays) was added and further incubated for 30-60 min at 20° C. HTRF signal was recorded in PHERAStar microplate reader. Ratio of signal obtained at 665 nm and 620 nm was used to compute the percent inhibition of compound utilizing the following formula:
Positive control=hSOS1+hKRASG12C+MAb Anti-GST-d2+Mab Anti-HIS-Tb Negative control=hKRASG12C+MAb Anti-GST-d2+MAb Anti-HIS-Tb

## COCC1CN(c2cc3c(N[C@H](C)c4cc(N)cc(C(F)(F)F)c4)nc(C)nc3c3c2CCC3)C1 [Compound 26, (R)—N-(1-(3-amino-5-(trifluoromethyl)phenyl)ethyl)-6-(3-(methoxymethyl)azetidin-1-yl)-2-methyl-8,9-dihydro-7H-cyclopenta[h]quinazolin-4-amine]
[1]
  pIC50: 7.15 to 7.51
pERK in DLD1 cells
  pIC50: 6.70 to 9.00
hSOS1 and hKRASG12C
  pIC50: 8.00 to 9.00

## COc1cc2c(N[C@H](C)c3cccc(C(F)(F)CO)c3F)nc(C)nc2c2c1N(C)CCO2 [Compound 121, (R)-2,2-difluoro-2-(2-fluoro-3-(1-((6-methoxy-2,7-dimethyl-8,9-dihydro-7H-[1,4]oxazino[3,2-h]quinazolin-4-yl)amino)ethyl)phenyl)ethan-1-ol]
[1]
  pIC50: 7.52 to 9.00
pERK in DLD1 cells
  pIC50: 6.70 to 9.00
hSOS1 and hKRASG12C
  pIC50: 8.00 to 9.00

## Cc1nc(N[C@H](C)c2cccc(C(F)(F)C(C)(C)O)c2F)c2cc(N3CC[C@@](C)(O)C3)c3c(c2n1)CCC3 (single isomer, unassigned) [Compound 61a]
[1]
  pIC50: 7.52 to 9.00
pERK in DLD1 cells
  pIC50: 6.70 to 9.00
hSOS1 and hKRASG12C
  pIC50: 8.00 to 9.00

## COCC1(O)CCN(c2cc3c(N[C@H](C)c4cccc(C(F)(F)CO)c4F)nc(C)nc3c3c2CCC3)CC1 [Compound 68, (R)-1-(4-((1-(3-(1,1-difluoro-2-hydroxyethyl)-2-fluorophenyl)ethyl)amino)-2-methyl-8,9-dihydro-7H-cyclopenta[h]quinazolin-6-yl)-4-(methoxymethyl)piperidin-4-ol]
[1]
  pIC50: 7.52 to 9.00
pERK in DLD1 cells
  pIC50: 6.70 to 9.00
hSOS1 and hKRASG12C
  pIC50: 8.00 to 9.00

## COCC1CCN(c2cc3c(N[C@H](C)c4cc(N)cc(C(F)(F)F)c4)nc(C)nc3c3c2CCC3)CC1 [Compound 54, (R)—N-(1-(3-amino-5-(trifluoromethyl)phenyl)ethyl)-6-(4-(methoxymethyl)piperidin-1-yl)-2-methyl-8,9-dihydro-7H-cyclopenta[h]quinazolin-4-amine]
[1]
  pIC50: 7.15 to 7.51
pERK in DLD1 cells
  pIC50: 6.70 to 9.00
hSOS1 and hKRASG12C
  pIC50: 7.70 to 7.96

## Cc1nc(N[C@H](C)c2cc(N)cc(C(F)F)c2)c2cc(N3CCOCC3)c3c(c2n1)CC(C)(C)O3 [Compound 115, (R)—N-(1-(3-amino-5-(difluoromethyl)phenyl)ethyl)-2,8,8-trimethyl-6-morpholino-8,9-dihydrofuro[2,3-h]quinazolin-4-amine]
[1]
  pIC50: 7.15 to 7.51
pERK in DLD1 cells
  pIC50: 6.70 to 9.00
hSOS1 and hKRASG12C
  pIC50: 8.00 to 9.00

## COCC1(O)CCN(c2cc3c(N[C@H](C)c4cccc(C(F)(F)C(C)O)c4F)nc(C)nc3c3c2CCC3)CC1 (single isomer, unassigned) [Compound 72a]
[1]
  pIC50: 7.52 to 9.00
pERK in DLD1 cells
  pIC50: 6.70 to 9.00
hSOS1 and hKRASG12C
  pIC50: 8.00 to 9.00

## Cc1nc(N[C@H](C)c2cccc(C(F)(F)[C@@](C)(O)CO)c2F)c2cc(N3CCOCC3)c3c(c2n1)CCC3 (racemic) [Compound 82b, (S/R)-3,3-difluoro-3-(2-fluoro-3-((S/R)-1-((2-methyl-6-morpholino-8,9-dihydro-7H-cyclopenta[h]quinazolin-4-yl)amino)ethyl)phenyl)-2-methylpropane-1,2-diol]
[1]
  pIC50: 7.52 to 9.00
pERK in DLD1 cells
  pIC50: 6.70 to 9.00
hSOS1 and hKRASG12C
  pIC50: 8.00 to 9.00

## Cc1nc(N[C@H](C)c2cc(N)cc(C(F)(F)F)c2)c2cc(N3CCC(CO)CC3)c3c(c2n1)CCC3 [Compound 49, (R)-(1-(4-((1-(3-amino-5-(trifluoromethyl)phenyl)ethyl)amino)-2-methyl-8,9-dihydro-7H-cyclopenta[h]quinazolin-6-yl)piperidin-4-yl)methanol]
[1]
  pIC50: 7.52 to 9.00
pERK in DLD1 cells
  pIC50: 6.70 to 9.00
hSOS1 and hKRASG12C
  pIC50: 8.00 to 9.00

## Cc1nc(N[C@H](C)c2cc(N)cc(C(F)(F)F)c2)c2cc(N3CCC(O)(CO)CC3)c3c(c2n1)CCC3 [Compound 84, (R)-1-(4-((1-(3-amino-5-(trifluoromethyl)phenyl)ethyl)amino)-2-methyl-8,9-dihydro-7H-cyclopenta[h]quinazolin-6-yl)-4-(hydroxymethyl)piperidin-4-ol]
[1]
  pIC50: 7.52 to 9.00
pERK in DLD1 cells
  pIC50: 6.70 to 9.00
hSOS1 and hKRASG12C
  pIC50: 8.00 to 9.00

## COCC1(O)CCN(c2cc3c(N[C@H](C)c4cccc(C(F)(F)COC)c4F)nc(C)nc3c3c2CCC3)CC1 [Compound 69, (R)-1-(4-((1-(3-(1,1-difluoro-2-methoxyethyl)-2-fluorophenyl)ethyl)amino)-2-methyl-8,9-dihydro-7H-cyclopenta[h]quinazolin-6-yl)-4-(methoxymethyl) piperidin-4-ol]
[1]
  pIC50: 7.52 to 9.00
pERK in DLD1 cells
  pIC50: 6.70 to 9.00
hSOS1 and hKRASG12C
  pIC50: 8.00 to 9.00

## Cc1nc(N[C@H](C)c2cccc(C(F)(F)CO)c2F)c2cc(N3CCOCC3)c3c(c2n1)CCC3 [Compound 75, (R)-2,2-difluoro-2-(2-fluoro-3-(1-((2-methyl-6-morpholino-8,9-dihydro-7H-cyclopenta[h]quinazolin-4-yl)amino)ethyl)phenyl)ethan-1-ol]
[1]
  pIC50: 7.52 to 9.00
pERK in DLD1 cells
  pIC50: 6.70 to 9.00
hSOS1 and hKRASG12C
  pIC50: 8.00 to 9.00

## Cc1nc(N[C@H](C)c2cc(N)cc(C(F)(F)F)c2)c2cc(N3CC4(CC(O)C4)C3)c3c(c2n1)CCC3 [Compound 52, (R)-2-(4-((1-(3-amino-5-(trifluoromethyl)phenyl)ethyl)amino)-2-methyl-8,9-dihydro-7H-cyclopenta[h]quinazolin-6-yl)-2-azaspiro[3.3]heptan-6-ol]
[1]
  pIC50: 7.52 to 9.00
pERK in DLD1 cells
  pIC50: 6.70 to 9.00
hSOS1 and hKRASG12C
  pIC50: 8.00 to 9.00

## COCC1(O)CCN(c2cc3c(N[C@H](C)c4cccc(C(F)(F)[C@@H](C)O)c4F)nc(C)nc3c3c2CCC3)CC1 (single isomer, unassigned) [Compound 72b]
[1]
  pIC50: 7.52 to 9.00
pERK in DLD1 cells
  pIC50: 6.70 to 9.00
hSOS1 and hKRASG12C
  pIC50: 8.00 to 9.00

## Cc1nc(N[C@H](C)c2cc(N)cc(C(F)(F)F)c2)c2cc(N3CCC(C)(O)C3)c3c(c2n1)CCC3 (single isomer, unassigned) [Compound 55a]
[1]
  pIC50: 7.15 to 7.51
pERK in DLD1 cells
  pIC50: 6.70 to 9.00
hSOS1 and hKRASG12C
  pIC50: 7.70 to 7.96

## Cc1nc(N[C@H](C)c2cccc(C(F)(F)C(C)(C)O)c2F)c2cc(N3CCC(O)CC3)c3c(c2n1)CCC3 [Compound 65, (R)-1-(4-((1-(3-(1,1-difluoro-2-hydroxy-2-methylpropyl)-2-fluorophenyl)ethyl)amino)-2-methyl-8,9-dihydro-7H-cyclopenta[h]quinazolin-6-yl)piperidin-4-ol]
[1]
  pIC50: 7.52 to 9.00
pERK in DLD1 cells
  pIC50: 6.70 to 9.00
hSOS1 and hKRASG12C
  pIC50: 8.00 to 9.00

## Cc1nc(N[C@H](C)c2cccc(C(F)(F)C(C)(C)O)c2F)c2cc(N3CCC(O)(CO)CC3)c3c(c2n1)CCC3 [Compound 85, (R)-1-(4-((1-(3-(1,1-difluoro-2-hydroxy-2-methylpropyl)-2-fluorophenyl)ethyl)amino)-2-methyl-8,9-dihydro-7H-cyclopenta[h]quinazolin-6-yl)-4-(hydroxymethyl) piperidin-4-ol]
[1]
  pIC50: 7.52 to 9.00
pERK in DLD1 cells
  pIC50: 6.70 to 9.00
hSOS1 and hKRASG12C
  pIC50: 8.00 to 9.00

## Cc1nc(N[C@H](C)c2cccc(C(F)(F)C(C)(C)O)c2F)c2cc(N3CCOCC3)c3c(c2n1)CCC3 [Compound 59, (R)-1,1-difluoro-1-(2-fluoro-3-(1-((2-methyl-6-morpholino-8,9-dihydro-7H-cyclopenta[h]quinazolin-4-yl)amino)ethyl)phenyl)-2-methylpropan-2-ol]
[1]
  pIC50: 7.52 to 9.00
pERK in DLD1 cells
  pIC50: 6.70 to 9.00
hSOS1 and hKRASG12C
  pIC50: 8.00 to 9.00

## Cc1nc(N[C@H](C)c2cc(N)cc(C(F)(F)F)c2)c2cc(N3CCOCC3=O)c3c(c2n1)CCC3 [Compound 83, (R)-4-(4-((1-(3-amino-5-(trifluoromethyl)phenyl)ethyl)amino)-2-methyl-8,9-dihydro-7H-cyclopenta[h]quinazolin-6-yl)morpholin-3-one]
[1]
  pIC50: 6.89 to 7.15
pERK in DLD1 cells
  pIC50: 6.70 to 9.00
hSOS1 and hKRASG12C
  pIC50: 7.70 to 7.96

## Cc1nc(N[C@H](C)c2cc(N)cc(C(F)(F)F)c2)c2cc(N3CCOCC3)c3c(c2n1)CC(C)O3 (mixture of isomers) [Compound 117a, (R/S)—N—((R)-1-(3-amino-5-(trifluoromethyl)phenyl)ethyl)-2,8-dimethyl-6-morpholino-8,9-dihydrofuro[2,3-h]quinazolin-4-amine]
[1]
  pIC50: 7.15 to 7.51
pERK in DLD1 cells
  pIC50: 6.70 to 9.00
hSOS1 and hKRASG12C
  pIC50: 8.00 to 9.00

## Cc1nc(N[C@H](C)c2cc(N)cc(C(F)(F)F)c2)c2cc(N3CC[C@](C)(O)C3)c3c(c2n1)CCC3 (single isomer, unassigned) [Compound 55b]
[1]
  pIC50: 6.89 to 7.15
pERK in DLD1 cells
  pIC50: 6.70 to 9.00
hSOS1 and hKRASG12C
  pIC50: 7.70 to 7.96

## Cc1nc(N[C@H](C)c2cc(N)cc(C(F)(F)F)c2)c2cc(N3CCC(C)(O)CC3)c3c(c2n1)CCC3 [Compound 50, (R)-1-(4-((1-(3-amino-5-(trifluoromethyl)phenyl)ethyl)amino)-2-methyl-8,9-dihydro-7H-cyclopenta[h]quinazolin-6-yl)-4-methylpiperidin-4-ol]
[1]
  pIC50: 7.52 to 9.00
pERK in DLD1 cells
  pIC50: 6.70 to 9.00
hSOS1 and hKRASG12C
  pIC50: 8.00 to 9.00
